Laboratory results taken from EP1172442A1, “VITAMIN D DERIVATIVES AND PROCESS FOR PRODUCING THE SAME” (MERCIAN CORPORATION, priority 1999, dated 2000).

System: DBP (rat serum diluted with a barbital acetate buffer)
Experiment: Binding ability to vitamin D-bound protein (DBP), competitive protein binding assay (CPBA), competition with 3H-25(OH)D3
Details: relative value of B/B0 50% value, 1,25(OH)2D3 taken to be 100; 4°C for 1 hour
Procedure: The binding ability to DBP was evaluated using the following competitive protein binding assay (CPBA). 1,25(OH)2D3 and each specimen were diluted to concentrations from 10^-11 M to 10^-5 M. 50 µL of a [26,27-^3H]-25-hydroxyvitamin D3 (^3H-25(OH)D3) solution and 100 µL of 1,25(OH)2D3 or each specimen solution were placed in a small test tube, and 1 mL of a DBP (rat serum diluted with a barbital acetate buffer) solution was added and mixed, and then allowed to stand at 4°C for 1 hour. Then, after 0.5 mL of a dextran-active carbon suspension was added and mixed, the mixture was allowed to stand on ice for 10 minutes, ^3H-25(OH)D3 unbound to DBP was removed by centrifugation at 3000 rpm for 15 minutes, and then the quantity of ^3H-25(OH)D3 bound to DBP was measured using 1 mL of the supernatant.
The binding ability to DBP of each specimen was evaluated by calculating and comparing the B/B0 50% value.

Binding ability to DBP | Compound
35.792 | C[C@H](CCCC(C)(C)O)[C@H]1CC[C@H]2/C(=C/C=C3/C[C@@H](O)C[C@H](O)/C3=C\F)CCC[C@]12C [Example 4(2), 19-fluoro-1α,25-dihydroxyvitamin D3]
23.665 | CC(C)C(O)CC[C@@H](C)[C@H]1CC[C@H]2/C(=C/C=C3/C[C@@H](O)C[C@H](O)/C3=C\F)CCC[C@]12C (stereo partly drawn) [Example 4(1), 19-fluoro-1α,24-dihydroxyvitamin D3]
35.257 | CC(CO)CCC[C@@H](C)[C@H]1CC[C@H]2/C(=C/C=C3/C[C@@H](O)C[C@H](O)/C3=C\F)CCC[C@]12C (stereo partly drawn) [Example 4(3), 19-fluoro-1α,26-dihydroxyvitamin D3]

The next lines start with the compound.

Compound | Binding ability to DBP
C=C1CC[C@H](O)C(F)(F)/C1=C/C=C1\CCC[C@]2(C)[C@@H]([C@H](C)CCCC(C)CO)CC[C@@H]12 (stereo partly shown) [Example 5(3), 4,4-Difluoro-26-hydroxyvitamin D3] | 28.106
C=C1C[C@@H](O)[C@H](O)C/C1=C/C=C1\CCC[C@]2(C)[C@@H]([C@H](C)CCCC(C)(C)O)CC[C@@H]12 [Example 1(1), 2α,25-dihydroxyvitamin D3] | 11433.718
C=C1/C(=C\C=C2/CCC[C@]3(C)[C@@H]([C@H](C)CCCC(C)CO)CC[C@@H]23)C[C@@H](O)C[C@@H]1O (stereo partly drawn) [Example 2, 1α,26-dihydroxyvitamin D3] | 168.529
C=C1/C(=C\C=C2/CCC[C@]3(C)[C@@H]([C@H](C)CCCC(C)(C)O)CC[C@@H]23)C(F)(F)[C@@H](O)C[C@@H]1O [Example 6(2), 4,4-difluoro-1α,25-dihydroxyvitamin D3] | 26.684
C=C1CC[C@H](O)C(F)(F)/C1=C/C=C1\CCC[C@]2(C)[C@@H]([C@H](C)CCC(O)C(C)C)CC[C@@H]12 (stereo partly shown) [Example 5(1), 4,4-difluoro-24-hydroxyvitamin D3] | 16.633

System: VDR (chicken small intestine receptor)
Experiment: Binding ability to vitamin D receptor (VDR), radio receptor assay (RRA), competition with 3H-1,25(OH)2D3
Details: relative value of B/B0 50% value, 1,25(OH)2D3 taken to be 100; 4°C for 3 hours
Procedure: Binding ability to VDR was examined by the following radio receptor assay (RRA) method.
1,25(OH)2D3 and each specimen were serially diluted at from 10^-11 M to 10^-6 M. 20µL of a [26,27-^3H]-1,25-dihydroxyvitamin D3 (^3H-1,25(OH)2D3) solution and 60 µL of 1,25(OH)2D3 or each specimen solution were added in a small test tube, and 0.5 mL of a VDR (chicken small intestine receptor) solution was added and mixed, and then allowed to stand at 4°C for 3 hours. Then, after 0.125 mL of a dextran-active carbon suspension was added and mixed, the mixture was allowed to stand on ice for 30 minutes, ^3H-1,25(OH)2D3 unbound to VDR was removed by centrifugation at 3000 rpm for 15 minutes, and then the quantity of ^3H-1,25 (OH)2D3 bound to VDR was measured using 0.5 mL of the supernatant.
The binding ability to VDR of each specimen was evaluated by calculating and comparing the B/B0 50% value. […] The VDR binding ability was shown in Table 1 as a relative value of each specimen when B/B0 50% value of 1,25(OH)2D3 is taken to be 100.

Binding ability to VDR | Compound
62.386 | C[C@H](CCCC(C)(C)O)[C@H]1CC[C@H]2/C(=C/C=C3/C[C@@H](O)C[C@H](O)/C3=C\F)CCC[C@]12C [Example 4(2), 19-fluoro-1α,25-dihydroxyvitamin D3]
72.878 | CC(C)C(O)CC[C@@H](C)[C@H]1CC[C@H]2/C(=C/C=C3/C[C@@H](O)C[C@H](O)/C3=C\F)CCC[C@]12C (stereo partly drawn) [Example 4(1), 19-fluoro-1α,24-dihydroxyvitamin D3]
29.129 | CC(CO)CCC[C@@H](C)[C@H]1CC[C@H]2/C(=C/C=C3/C[C@@H](O)C[C@H](O)/C3=C\F)CCC[C@]12C (stereo partly drawn) [Example 4(3), 19-fluoro-1α,26-dihydroxyvitamin D3]

More lines, now with the values behind:

Compound | Binding ability to VDR
C=C1CC[C@H](O)C(F)(F)/C1=C/C=C1\CCC[C@]2(C)[C@@H]([C@H](C)CCCC(C)CO)CC[C@@H]12 (stereo partly shown) [Example 5(3), 4,4-Difluoro-26-hydroxyvitamin D3] | 34.067
C=C1C[C@@H](O)[C@H](O)C/C1=C/C=C1\CCC[C@]2(C)[C@@H]([C@H](C)CCCC(C)(C)O)CC[C@@H]12 [Example 1(1), 2α,25-dihydroxyvitamin D3] | 32.480
C=C1/C(=C\C=C2/CCC[C@]3(C)[C@@H]([C@H](C)CCCC(C)CO)CC[C@@H]23)C[C@@H](O)C[C@@H]1O (stereo partly drawn) [Example 2, 1α,26-dihydroxyvitamin D3] | 107.557
C=C1/C(=C\C=C2/CCC[C@]3(C)[C@@H]([C@H](C)CCCC(C)(C)O)CC[C@@H]23)C(F)(F)[C@@H](O)C[C@@H]1O [Example 6(2), 4,4-difluoro-1α,25-dihydroxyvitamin D3] | 92.716
C=C1CC[C@H](O)C(F)(F)/C1=C/C=C1\CCC[C@]2(C)[C@@H]([C@H](C)CCC(O)C(C)C)CC[C@@H]12 (stereo partly shown) [Example 5(1), 4,4-difluoro-24-hydroxyvitamin D3] | 81.860
